Experimental data: patent US10273221B2, “Microbiocidal heterobicyclic derivatives” (Syngenta Participations AG, priority 2015, dated 2019)

Columns and labels:
[1] = tested on: Botryotinia fuckeliana (Botrytis cinerea); assay: Botryotinia fuckeliana (Botrytis cinerea) / liquid culture (gray mould); format: cell-based; settings: growth inhibition determined photometrically 3-4 days after application, vs untreated control, read-out: disease control
Fusarium culmorum = assay: microbe, parasite or virus in culture; format: cell-based; settings: 72 h, read-out: disease control
[2] = tested on: Mycosphaerella graminicola (Septoria tritici); assay: Mycosphaerella graminicola (Septoria tritici) / liquid culture (Septoria blotch); format: cell-based; settings: Zymoseptoria tritici, 96 h, growth inhibition determined photometrically 4-5 days after application, vs untreated control, read-out: disease control
[3] = tested on: Magnaporthe grisea (Pyricularia oryzae); assay: microbe, parasite or virus in culture; format: cell-based; settings: 72 h, read-out: control of Magnaporthe grisea
[4] = tested on: Glomerella lagenarium (Colletotrichum lagenarium); assay: Glomerella lagenarium (Colletotrichum lagenarium) / liquid culture (anthracnose); format: cell-based; settings: Colletotrichum orbiculare, growth inhibition measured photometrically 3-4 days after application, vs untreated control, read-out: disease control
[5] = tested on: Monographella nivalis (Microdochium nivale); assay: Monographella nivalis (Microdochium nivale) / liquid culture (foot rot cereals); format: cell-based; settings: 96 h, growth inhibition determined photometrically 4-5 days after application, vs untreated control, read-out: disease control
Sclerotinia sclerotiorum = Sclerotinia sclerotiorum / liquid culture (cottony rot); settings: 72 h, read-out: control of Sclerotinia sclerotiorum
Experimental: Sclerotinia sclerotiorum/Liquid Culture (Cottony Rot)
Mycelia fragments of a newly grown liquid culture of the fungus are directly mixed into nutrient broth (Vogels broth). After placing a (DMSO) solution of test compound into a microtiter plate (96-well format) the nutrient broth containing the fungal material is added. The test plates are incubated at 24° C. and the inhibition of growth is determined photometrically 3-4 days after application.

Gaeumannomyces graminis = Gaeumannomyces graminis / liquid culture (take-all of cereals); format: cell-based; settings: growth inhibition determined photometrically 4-5 days after application, vs untreated control, read-out: disease control
Pyrenophora teres = Pyrenophora teres / liquid culture (net blotch); format: cell-based; settings: growth inhibition determined photometrically 3-4 days after application, vs untreated control

SMILES | inhibition of growth at 200 ppm [1] | inhibition of growth at 200 ppm (Fusarium culmorum) | inhibition of growth at 200 ppm [2] | inhibition of growth at 20 ppm [3] | melting point | inhibition of growth at 200 ppm [4] | inhibition of growth at 200 ppm [5] | inhibition of growth at 20 ppm (Sclerotinia sclerotiorum) | inhibition of growth at 200 ppm (Gaeumannomyces graminis) | inhibition of growth at 20 ppm (Pyrenophora teres)
Cc1ccc2c(ncn2C2=NC(C)(C)C(=O)c3cc(Cl)ccc32)c1C [E-36] | ≥ 80% | ≥ 80% | ≥ 80% | ≥ 80% | 196 to 199 °C | – | – | – | – | –
Cc1ccc2c(ncn2C2=NC(C)(C)Cc3cc(F)ccc32)c1C [E-57] | ≥ 80% | ≥ 80% | ≥ 80% | ≥ 80% | 143 to 145 °C | ≥ 80% | ≥ 80% | ≥ 80% | – | –
Cc1cccc2c1ncn2C1=NCC2(CCCC2)c2ccccc21 [E-53] | ≥ 80% | – | ≥ 80% | ≥ 80% | – | – | ≥ 80% | – | – | –
Cc1c(F)ccc2c1ncn2C1=NC(C)(C)C(F)(F)c2ccccc21 [E-32] | ≥ 80% | ≥ 80% | ≥ 80% | ≥ 80% | 118 to 121 °C | ≥ 80% | ≥ 80% | ≥ 80% | ≥ 80% | –
Cc1c(Cl)ccc2c1ncn2C1=NC(C)(C)C(F)(F)c2ccccc21 [E-33] | ≥ 80% | ≥ 80% | ≥ 80% | ≥ 80% | – | ≥ 80% | ≥ 80% | ≥ 80% | ≥ 80% | –
Cc1cccc2c1C(F)(F)C(C)(C)N=C2n1cnc2c(C)c(C)ccc21 [E-22] | ≥ 80% | ≥ 80% | ≥ 80% | ≥ 80% | – | ≥ 80% | ≥ 80% | ≥ 80% | – | ≥ 80%
Cc1cccc2c1ncn2C1=NC(C)(C)C2(CC2)c2ccccc21 [E-9] | ≥ 80% | ≥ 80% | – | ≥ 80% | – | ≥ 80% | ≥ 80% | – | ≥ 80% | ≥ 80%
CC1(C)N=C(n2cnc3c(F)cccc32)c2cccc(F)c2C1(C)C [E-7] | ≥ 80% | ≥ 80% | – | ≥ 80% | – | ≥ 80% | ≥ 80% | – | ≥ 80% | ≥ 80%
CC1(C)N=C(n2cnc3c4c(ccc32)CCC4)c2ccccc2C1(F)F [E-55] | ≥ 80% | ≥ 80% | ≥ 80% | ≥ 80% | – | ≥ 80% | ≥ 80% | ≥ 80% | – | –
Cc1cccc2c1C(=O)C(C)(C)N=C2n1cnc2c(C)cccc21 [E-26] | ≥ 80% | ≥ 80% | – | ≥ 80% | 96 to 101 °C | ≥ 80% | ≥ 80% | ≥ 80% | – | ≥ 80%
CCc1cccc2c1ncn2C1=NC(C)(C)C(C)(C)c2c(F)cccc21 [E-14] | ≥ 80% | ≥ 80% | – | ≥ 80% | 87 to 88 °C | ≥ 80% | ≥ 80% | – | ≥ 80% | ≥ 80%
Cc1cccc2c1ncn2C1=NCC2(CCC2)c2ccccc21 [E-54] | ≥ 80% | – | ≥ 80% | ≥ 80% | – | ≥ 80% | ≥ 80% | – | – | –
CC1(C)N=C(n2cnc3c(F)c(F)ccc32)c2cccc(F)c2C1(C)C [E-50] | ≥ 80% | ≥ 80% | ≥ 80% | ≥ 80% | 112 to 114 °C | ≥ 80% | ≥ 80% | – | – | –
